Columns and labels:
[1] = test system: NF-κB DNA binding in MEF cells; assay: EMSA of NF-κB DNA binding in TNF-α-treated MEF cells; type: cell-based, mouse; conditions: peptide 10-50 μM
Experimental: To prepare nuclear and cytoplasmic protein extracts, HeLa, MEF, and RAW 264.7 cells were lysed in buffer containing 4.3 mM Na2HPO4, 1.47 mM KH2PO4 pH 7.4, 137 mM NaCl, 2.7 mM KCl, 1 mM DTT, 0.05% (v/v) NP-40, and 1×protease inhibitor cocktail for 10 minutes on ice and spun at 3,000 rpm at 4° C. for 10 minutes. The supernatant containing the cytoplasmic fraction was quantified by Bio-Rad protein assay to determine the total amount of protein. […] Finally, samples were centrifuged at 13,000 rpm at 4° C. for 20 minutes, and supernatants containing the soluble nuclear fraction were measured by the Bio-Rad protein assay to determine the total amount of protein. […]
(§1) Electrophoretic mobility shift assay (EMSA) was performed using recombinant full length NF-κB ReIA homodimer as a positive control as previously described (45). […] The amount of protein in lysates was quantified by Bio-Rad protein assay. EMSA analysis with quantitative densitometry and signal intensity was quantitated using ImageJ software. […]
(§2) It was then tested if the observed effect is universal across species and cell types. […] The effect of TAT-NEMO^ActPep on NF-κB DNA binding was also analyzed in MEF cells by EMSA.

[2] = test system: NF-κB DNA binding in RAW 264.7 murine macrophage cells; assay: EMSA of NF-κB DNA binding, nuclear lysates of LPS-treated RAW 264.7 cells; type: cell-based
Experimental: To prepare nuclear and cytoplasmic protein extracts, HeLa, MEF, and RAW 264.7 cells were lysed in buffer containing 4.3 mM Na2HPO4, 1.47 mM KH2PO4 pH 7.4, 137 mM NaCl, 2.7 mM KCl, 1 mM DTT, 0.05% (v/v) NP-40, and 1×protease inhibitor cocktail for 10 minutes on ice and spun at 3,000 rpm at 4° C. for 10 minutes. The supernatant containing the cytoplasmic fraction was quantified by Bio-Rad protein assay to determine the total amount of protein. Pellets were resuspended in nuclear extraction buffer (25 mM Tris-HCl pH 7.5, 420 mM NaCl, 10% glycerol, 0.2 mM EDTA, 1 mM DTT, 0.5 mM PMSF, 1×protease inhibitor cocktail) once and then subjected to three lysis cycles (freeze at −80° C. and thaw at 37° C.). Finally, samples were centrifuged at 13,000 rpm at 4° C. for 20 minutes, and supernatants containing the soluble nuclear fraction were measured by the Bio-Rad protein assay to determine the total amount of protein. Nuclear and cytoplasmic extracts were aliquoted and kept at −80° C.
HeLa, MEF, RAW 264.7 cells were cultured in Dulbecco's MEM containing 10% fetal bovine […] supplemented with penicillin and streptomycin, at 37° C. in a humidity incubator with 5% CO2. RAW 264.7 cells were seeded and allowed to adhere for 24 hours then treated with NEMO^ActPep or NEMO^ActPep 6G at different concentrations 60 min before the LPS challenge (100 ng/ml). After 2 hours, nuclear and cytoplasmic extracts were collected. […]
as §1, §2

## TAT-NEMO^ActPep: HIV-1 TAT fused flexibly to human NEMO amino acids 375-391; cell permeable version of NEMO activation peptide (SEQ ID NO 2) (YGRKKRRQRRRGGLSSPLALPSQRRSPPEE)
[1]
  NF-κB activation in response to TNF-α (EMSA): inhibited NF-κB activation
[2]; LPS-treated RAW 264.7 nuclear lysates, peptide 5-55 μM
  NF-κB activity by EMSA relative to TAT-NEMO^ActPep 6G, compared with HeLa cells: to a similar degree as that observed in HeLa cells
[2]; RAW 264.7 cells, 100 ng/mL LPS for 2 hours
  NF-κB DNA binding: inhibited

— US20240166703A1, “ANTI-INFLAMMATORY PEPTIDE AND METHOD OF USE THEREOF” (The Regents of the University of California, priority 2021, published 2024)
